Results: PubChem BioAssay (NCI)
Where “and” joins values, the source holds several entries; their conditions need not be identical. Equal entries are not always repeated.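 Briefly, cells in 96-well plates were exposed to five compound concentrations for 48 h, and endpoints were estimated by linear interpolation. Here, GI50 denotes the concentration required for 50% inhibition of growth. TGI is the concentration that stops growth completely.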

How the values were obtained:
Assay in all cases: growth of human tumour cells (NCI), 48 h
[1] = test system: HOP-62 NSCLC
[2] = test system: MDA-MB-435
[3] = test system: K-562 leukemia
[4] = test system: UACC-257 melanoma
[5] = test system: SR leukemia
[6] = test system: SK-OV-3 ovarian
[7] = test system: NCI-H23 lung
[8] = test system: DU-145 prostate
[9] = test system: LOX IMVI melanoma
[10] = test system: NCI-H226 lung
[11] = test system: KM12 colon
[12] = test system: SK-MEL-5 melanoma
[13] = test system: OVCAR-3 ovarian
[14] = test system: HCT-116 colon
[15] = test system: SK-MEL-2 melanoma
[16] = test system: SF-268 CNS
[17] = test system: NCI-H522 lung
[18] = test system: SF-295 CNS
[19] = test system: HCT-15 colon
[20] = test system: IGROV1 ovarian
[21] = test system: BT-549 breast
[22] = test system: M14 melanoma
[23] = test system: SN12C renal
[24] = test system: OVCAR-8 ovarian
[25] = test system: NCI-H460 lung
[26] = test system: NCI/ADR-RES ovarian
[27] = test system: HL-60(TB) leukemia
[28] = test system: SK-MEL-28 melanoma
[29] = test system: MDA-MB-231 breast
[30] = test system: CAKI-1 renal
[31] = test system: U251 CNS
[32] = test system: TK-10 renal
[33] = test system: HOP-92 NSCLC
[34] = test system: PC-3 prostate
[35] = test system: HCC-2998 colon
[36] = test system: A549 NSCLC
[37] = test system: HT29 colon
[38] = test system: 786-0 renal
[39] = test system: ACHN renal
[40] = test system: OVCAR-5 ovarian
[41] = test system: RPMI-8226 leukemia
[42] = test system: RXF 393 renal
[43] = test system: COLO 205 colon
[44] = test system: MOLT-4 leukemia
[45] = test system: UACC-62 melanoma
[46] = test system: SNB-75 CNS
[47] = test system: OVCAR-4 ovarian
[48] = test system: HS 578T breast
[49] = test system: SW-620 colon
[50] = test system: MCF7 breast
[51] = test system: T-47D breast
[52] = test system: SNB-19 CNS
[53] = test system: EKVX NSCLC
[54] = test system: UO-31 renal
[55] = test system: SF-539 CNS
[56] = test system: CCRF-CEM leukemia
[57] = test system: MALME-3M melanoma

Compound: COC(=O)C1=C(OC(=O)c2ccccc2)C(C(=O)OC)[C@]2(O)[C@@H](C(=O)OC)C1CC(c1ccccc1OC)[C@@H]2C(=O)OC (stereo partly drawn)
- GI50 [1]: 38.3 µM
- TGI [1]: > 100 µM
- GI50 [2]: 1.89 µM
- TGI [2]: 4.4 µM
- GI50 [3]: 17.6 µM
- TGI [3]: > 100 µM
- GI50 [4]: 5.37 µM
- TGI [4]: 34.8 µM
- GI50 [5]: 1.54 µM
- TGI [5]: 5.16 µM
- GI50 [6]: 5.62 µM
- TGI [6]: > 100 µM
- GI50 [7]: 24.2 µM
- TGI [7]: 72.7 µM
- GI50 [8]: 5.51 µM
- TGI [8]: > 100 µM
- GI50 [9]: 39.2 µM
- TGI [9]: > 100 µM
- GI50 [10]: 15.2 µM
- TGI [10]: 80.7 µM
- GI50 [11]: 7.9 µM
- TGI [11]: > 100 µM
- GI50 [12]: 4.09 µM
- TGI [12]: 20.5 µM
- GI50 [13]: 2.55 µM
- TGI [13]: > 100 µM
- GI50 [14]: 13.9 µM
- TGI [14]: 52.8 µM
- GI50 [15]: 36.2 µM
- TGI [15]: > 100 µM
- GI50 [16]: > 100 µM
- TGI [16]: > 100 µM
- GI50 [17]: 8.93 µM
- TGI [17]: > 100 µM
- GI50 [18]: 5.41 µM
- TGI [18]: > 100 µM
- GI50 [19]: 30.1 µM
- TGI [19]: > 100 µM
- GI50 [20]: 44.5 µM
- TGI [20]: > 100 µM
- GI50 [21]: 5.58 µM
- TGI [21]: 83.6 µM
- GI50 [22]: 18.6 µM
- TGI [22]: 50.8 µM
- GI50 [23]: 10.2 µM
- TGI [23]: 51.5 µM
- GI50 [24]: 18.4 µM
- TGI [24]: > 100 µM
- GI50 [25]: 50.9 µM
- TGI [25]: > 100 µM
- GI50 [26]: 21 µM
- TGI [26]: 55.5 µM
- GI50 [27]: 14.7 µM
- TGI [27]: 67.1 µM
- GI50 [28]: 23.2 µM
- TGI [28]: > 100 µM
- GI50 [29]: 14.7 µM
- TGI [29]: 60.2 µM
- GI50 [30]: 3.99 µM
- TGI [30]: > 100 µM
- GI50 [31]: 37.9 µM
- TGI [31]: > 100 µM
- GI50 [32]: 26.5 µM
- TGI [32]: > 100 µM
- GI50 [33]: 2.69 µM
- TGI [33]: 31 µM
- GI50 [34]: 9.08 µM
- TGI [34]: 69.2 µM
- GI50 [35]: 17.6 µM
- TGI [35]: 34.1 µM
- GI50 [36]: 12.9 µM
- TGI [36]: 77.9 µM
- GI50 [37]: 22.2 µM
- TGI [37]: > 100 µM
- GI50 [38]: 30.8 µM
- TGI [38]: > 100 µM
- GI50 [39]: 41.9 µM
- TGI [39]: > 100 µM
- GI50 [40]: 41.5 µM
- TGI [40]: > 100 µM
- GI50 [41]: 6.17 µM
- TGI [41]: 38.2 µM
- GI50 [42]: 2.53 µM
- TGI [42]: 8.65 µM
- GI50 [43]: 15.5 µM
- TGI [43]: > 100 µM
- GI50 [44]: 5.52 µM
- TGI [44]: 37.8 µM
- GI50 [45]: 4.59 µM
- TGI [45]: 23.2 µM
- GI50 [46]: 10.7 µM
- TGI [46]: > 100 µM
- GI50 [47]: 4.75 µM
- TGI [47]: > 100 µM
- GI50 [48]: 5.98 µM
- TGI [48]: 83.4 µM
- GI50 [49]: 15.3 µM
- TGI [49]: > 100 µM
- GI50 [50]: 77.5 µM
- TGI [50]: > 100 µM
- GI50 [51]: 22 µM
- TGI [51]: > 100 µM
- GI50 [52]: 25.1 µM
- TGI [52]: > 100 µM
- GI50 [53]: 4.02 µM
- TGI [53]: 35.3 µM
- GI50 [54]: 13.9 µM
- TGI [54]: 50.5 µM
- GI50 [55]: 3.45 µM
- TGI [55]: 10.8 µM

Compound: COC(=O)[C@@H](C)C[C@H](Cc1ccccc1)NC(=O)c1cccc([C@@H](C[C@H](C(C)C)N(C)C(=O)[C@@H](NC(=O)[C@H]2CCCCN2C)C2CC2)OC(C)=O)n1
- GI50 [1]: 0.00333 µM and 0.0296 µM
- TGI [2]: 0.0143 µM
- GI50 [3]: 0.00333 µM
- TGI [3]: 33.3 µM and > 100 µM
- GI50 [4]: > 100 µM
- TGI [4]: > 100 µM
- GI50 [5]: 0.00333 µM
- TGI [5]: 33.3 µM and 69.9 µM
- GI50 [6]: 0.00333 µM and 0.0265 µM
- TGI [6]: 33.3 µM and > 100 µM
- TGI [7]: 33.3 µM and > 100 µM
- GI50 [8]: 0.00333 µM
- TGI [8]: 33.3 µM and > 100 µM
- GI50 [9]: 0.00333 µM and 0.019 µM
- TGI [9]: 33.3 µM and > 100 µM
- TGI [10]: 33.3 µM and > 100 µM
- GI50 [11]: 0.00333 µM and 0.0298 µM
- TGI [11]: 33.3 µM and > 100 µM
- TGI [12]: 1.14 µM
- GI50 [14]: 0.00333 µM
- TGI [14]: 3.98 µM and 14.4 µM
- GI50 [15]: 0.00333 µM
- TGI [15]: 33.3 µM and > 100 µM
- TGI [16]: 33.3 µM and > 100 µM
- TGI [17]: 37.3 µM
- GI50 [18]: 0.0363 µM
- TGI [18]: > 100 µM
- TGI [19]: 20.6 µM and > 100 µM
- GI50 [20]: 0.00333 µM
- TGI [20]: 33.3 µM and > 100 µM
- GI50 [21]: 0.00333 µM
- TGI [22]: 0.0358 µM
- TGI [23]: 33.3 µM and > 100 µM
- TGI [24]: 33.3 µM and > 100 µM
- GI50 [25]: 0.00333 µM and 0.0297 µM
- TGI [25]: 33.3 µM and > 100 µM
- GI50 [26]: 5.06 µM and 4.67 µM
- TGI [26]: 33.3 µM and > 100 µM
- TGI [27]: 0.0111 µM
- GI50 [28]: 5.03 µM
- TGI [28]: 33.3 µM
- GI50 [29]: 0.00333 µM and 0.0281 µM
- TGI [29]: 4.35 µM and 24 µM
- TGI [31]: 33.3 µM and > 100 µM
- TGI [32]: 33.3 µM and > 100 µM
- TGI [33]: 13.6 µM and 86.6 µM
- GI50 [34]: 0.00333 µM and 0.0223 µM
- TGI [34]: 33.3 µM and > 100 µM
- TGI [35]: 33.3 µM and > 100 µM
- TGI [36]: 33.3 µM and > 100 µM
- GI50 [56]: 0.00333 µM and 0.0234 µM
- TGI [56]: 33.3 µM and > 100 µM
- GI50 [37]: 0.00333 µM
- TGI [38]: 11.3 µM and > 100 µM
- TGI [39]: 33.3 µM and > 100 µM
- TGI [40]: 33.3 µM and > 100 µM
- GI50 [41]: 0.00333 µM
- TGI [41]: 7.63 µM and 55.6 µM
- TGI [44]: 33.3 µM and > 100 µM
- GI50 [45]: 0.00333 µM
- TGI [45]: 33.3 µM
- TGI [46]: 33.3 µM and > 100 µM
- TGI [47]: 33.3 µM and > 100 µM
- TGI [48]: 33.3 µM and > 100 µM
- GI50 [49]: 0.00333 µM
- TGI [49]: 33.3 µM and > 100 µM
- GI50 [50]: 0.00333 µM
- TGI [50]: 33.3 µM and > 100 µM
- GI50 [51]: > 33.3 µM
- TGI [51]: > 33.3 µM
- GI50 [52]: 0.00333 µM
- TGI [52]: 33.3 µM and > 100 µM
- TGI [53]: 33.3 µM and > 100 µM
- TGI [57]: 33.3 µM and > 100 µM
- GI50 [54]: 0.0766 µM
- TGI [54]: 33.3 µM
- GI50 [55]: 0.02 µM
- TGI [55]: 0.0764 µM
